From patent US20090068143A1, “ORALLY EFFECTIVE C[…]” (priority 2005, published 2009)

Key:
CB1 receptor = CB1 receptor (Homo sapiens, UniProt P21554); experiment: CB1 binding assay
visceral pain = experiment: Visceral pain, acetic acid induced writhing responses; type: in vivo, ICR mice; conditions: for inhibition of writhing responses as compared to vehicle treated group: 2 mg/kg i.v.
Description: For the i.v. part of the study, compounds were dissolved in CREMOPHOR®:Ethanol and diluted 1:20 in saline prior to injection, fifteen minutes before pain induction. When compounds were delivered per os, they were dissolved in phosphate buffer or in CREMOPHOR®:Ethanol as previously described and administered 1 hour before pain induction. Each treatment group, except for controls comprising at least 30 animals, was composed of at least 6 animals. Fifteen or sixty minutes later, depending on the route selected for drug administration, the mice were injected i.p. with 10 ml/kg of 0.6% acetic acid and the number of visceral pain related behaviors (writhing, stretching, contractions of the abdomen accompanied by an elongation of the body and extension of the hind limbs) is counted over a period of 5 minutes, starting 5 minutes after the acetic acid administration. These visceral pain related behaviors are globally defined as writhing responses (WR). The results are expressed as mean number of writhing responses±SEM. Data were analyzed using analysis of variance (ANOVA) followed by post-hoc Fisher test. A value of p<0.05 was considered to be statistically significant and is indicated on the figure by an asterisk over the relevant treatment group.
The following results were obtained at 2 mg/kg i.v. of test compounds or, in the case of the study performed with cannabinoid receptor antagonists, 1 mg/kg test compound or antagonist alone and 1 mg/kg test compound+1 mg/kg antagonist. In a separate study, it was shown that analgesic activity of compounds of the invention was dose related.

[1] = Actual solubility in aqueous buffers / cosolvent (HPLC, spectrophotometer); type: physicochemical
Description: The actual solubility of certain compounds of the invention was assessed in aqueous buffers and final concentration of compounds was determined using HPLC and spectrophotometer methodologies. […] Therefore, compounds that were designed following the same rational yielded unexpectedly divergent outcome, for instance in connection with solubility in aqueous solutions.
It should be noted that following lyophilization compound 18F could be dissolved in 80 mM phosphate buffer at pH 6.9 even more efficiently at concentrations up to 60 mg/ml, about two order of magnitudes higher than expected.
Approximately 11 g of compound 18F were lyophilized in one lyophilization cycle. A cosolvent mixture comprising 38.6% w/v of compound 18F was divided into several dishes to fit the lyophilization chamber. As a result of lyophilization, a dry product with improved physical properties such as flowability and less stickiness was obtained.

iNOS [2] = experiment: iNOS gene expression in LPS activated RAW 264.7 macrophages (real-time RT-PCR); type: cell-based, mouse; conditions: for inhibition of iNOS gene expression: 10 μM, 1 h pre-treatment, 3 hrs after LPS activation
Description: (§1) RAW 264.7 macrophages, a mouse cell line (ATCC # TIB 71), were grown in Dulbecco's modified Eagle's medium (DMEM) with 4 mM L-glutamine adjusted to contain 1.5 g/L sodium bicarbonate, 4.5 g/L glucose, and 10% heat inactivated fetal bovine serum. Cells were grown in tissue culture flasks and seeded at appropriate density into 6 wells tissue culture plates. Four million Raw cells in half a milliliter were stimulated with 1 μg/ml Lipopolysaccharide E. coli 055:B5 (DIFCO Laboratories). The mouse macrophages were pre-treated for one hour with controls or 10 μM of test compounds, and later on activated with LPS. RNA samples were extracted from the cells 3 hrs after activation and iNOS gene expression levels were analyzed by real-time RT-PCR as previously described. For western blot analysis, compounds were tested at 1, 5 and 10 μM and cells were harvested 24 hrs after LPS stimulation. Supernatant were collected and NO secretion was analyzed using ELISA. Cells were washed 3 times with cold PBS, scrapped and lyzed in 100 μl cell lysis buffer containing 20 mM HEPES, pH 7.6, 150 mM NaCl, 1.5 mM MgCl2, 0.2 mM EDTA, 1% Triton X-100, 10% glycerol, 1 mM DTT, 1 mM PMSF, 10 μg/ml aprotinin. 5 µg/ml leupeptin, 10 mM p-nitrophenyl phosphate, 100 mM β-glycerophosphate, 1 mM sodium fluoride, and 0.1 μM sodium orthovanadate. Cells were lyzed on ice for 10 minutes before further processing.
The results of this experiment are expressed as fold activation of iNOS over non-activated macrophages, after normalization to cyclophilin A expression. Compound 18A inhibits 63% of iNOS gene expression, and compounds 18B, 18E and 18F inhibit 55%, 25% and 100% respectively. […] This surprising observation strengthen the fact that compounds of the invention, though chemically related, have distinct and unexpected properties.

CB2 receptor = CB2 receptor (Homo sapiens, UniProt P34972); experiment: CB2 binding assay
[3] = Stability in aqueous solutions; type: physicochemical; conditions: 95 μg/ml in citrate buffer (pH 7.1), 4° C.
Description: Stability of compounds of the invention in aqueous solutions was compared. Compounds were dissolved in buffer phosphate solutions and their concentration monitored using HPLC and spectrophotometer methodology. While compound 18F at concentration of 2 mg/ml in phosphate buffer (pH 7.0) was stable for at least 3 months at 4° C., compound 18B at concentration of 95 μg/ml in citrate buffer (pH 7.1) readily hydrolyzed in less than 24 hours at 4° C. Therefore, compounds that were designed following the same rational yielded unexpectedly divergent outcome, for instance in connection with stability in aqueous solutions.

RAW 264.7 macrophages = experiment: NO secretion of LPS activated RAW 264.7 macrophages (ELISA); type: cell-based; conditions: Mus musculus, RAW264.7, 24 hrs after LPS stimulation
Description: as §1, with “processing. […]” for “processing.”

iNOS [4] = experiment: iNOS protein expression in activated macrophages (western blot); type: cell-based, mouse; conditions: 1, 5 and 10 μM, 24 hrs after LPS stimulation
Description: as §1, with “Cells were washed 3 times with cold PBS, scrapped and lyzed in 100 μl cell lysis buffer containing 20 mM HEPES, pH 7.6, 150 mM NaCl, 1.5 mM MgCl2, 0.2 mM EDTA, 1% Triton X-100, 10% glycerol, 1 mM DTT, 1 mM PMSF, 10 μg/ml aprotinin. 5 µg/ml leupeptin, 10 mM p-nitrophenyl phosphate, 100 mM β-glycerophosphate, 1 mM sodium fluoride, and 0.1 μM sodium orthovanadate. Cells were lyzed on ice for 10 minutes before further processing.” left out
To assess correlation between gene expression and protein expression, protein extracts were prepared from the various treated activated macrophages. […] Primary antibodies against cyclophilin A were used as control (Upstate, Cat# 07-313), and the amount of iNOS was assessed using NOS2 (C11) Santa Cruz antibodies (Cat# SC-7271) were hybridized for 2 hours at room temperature. […]

MBP induced acute EAE = experiment: MBP induced acute EAE; type: in vivo, Lewis rats; conditions: 0.5-1 mg/kg i.v., 3 days after clinical onset
Description: In the present study, EAE was induced by injection of Myelin Basic Protein (MBP), a method known to model the acute phase of MS. In this model the onset of the disease is observed by the appearance of clinical symptoms about 10 days after induction. The disease progresses and the clinical score increases and peaks around day 15 and spontaneous recovery is observed around day 23 after induction of the disease.
Female Lewis rats (average body weight 130-180 g, Harlan, Israel) were injected s.c. into the hind paws with 25 μg of purified guinea pig myelin basic protein (MBP, Sigma) emulsified in 0.1 ml of Complete Freund's Adjuvant (Difco). Animals were maintained on a 12 hours light/12 hours dark regimen, at a constant temperature of 22° C., with food and water ad libitum. Starting from day 8 following induction, animals were followed up on a daily basis. The results are recorded as clinical score; score of 0 indicates a normal animal with no clinical signs, 0.5 indicates a loss of tonicity in the tail's distal part, 1 indicates whole tail paralysis, 1.5 indicates hind legs weakness in one leg, 2 indicates hind legs weakness in two legs, 2.5 indicates fore legs paralysis in one leg, 3 indicates paralysis of all four legs, 4 indicates complete body paralysis and moribund state and 5 indicates death. The clinical score of the animals is recorded for 15 days following onset of disease until the end of the study 25 days following induction and the area under the curve (AUC) is calculated over this period of time.
Few routes of administration were assessed and the treatments were either administered intravenously (in CE vehicle) or orally by gavage (in PB vehicle) at volume dose of 5 ml/kg.
Results are expressed as mean±SEM and the differences between the treatment groups were analyzed by analysis of variance (ANOVA) followed by Tukey's post hoc test. A value of p<0.05 was considered to be statistically significant and is indicated on the figure by an asterisk over the relevant treatment group.
Compound 18A was dissolved in CREMOPHOR EL®:ethanol and further diluted in physiological buffer prior to i.v. administration. It is now disclosed that compound 18F could be dissolved directly in 80 mM phosphate buffer (pH 6.4) and administered p.o. Compound 18F was administered by oral gavage at doses of 20, 30, 40, 50 and 60 mg/kg to animals showing clinical signs of the disease. Each treatment group comprised at least 10 animals at onset of disease. At some doses, experiments were repeated up to four times.

[5] = system: Taxol® induced neuropathic pain; experiment: Taxol® induced neuropathic pain; type: in vivo, Sprague Dawley rats; conditions: gabapentin 100 mg/kg i.p., morphine 5 mg/kg i.p.; not statistically significant
Description: Male Sprague Dawley rats (average body weight 150-200 g, Harlan, Israel) were administered i.p. with 6 mg/kg Taxol® (Bristol Myers Squibb, USA) every other day for 9 days. On day 13, baseline pain threshold was measured. One hour later, the animals were administered with 5 ml/kg i.p. of vehicle (PB) only and pain threshold was re-established. After an additional hour animals were treated with various doses of compound 18F ranging from 0.5 mg/kg up to 10 mg/kg administered i.p. Morphine at 5 mg/kg i.p. and gabapentin at 100 mg/kg i.p served as positive controls. Each treatment group comprised at least eight animals. One hour post drug administration pain threshold was monitored using thermal and mechanical stimuli as previously described. At the end of the study, rats were euthanized with sodium pentobarbitone 100 mg/kg i.p. Sample rats were then transfused with saline and heparinized 4% formaldehyde solution. The L4-L5 area of the spinal cord and the sciatic nerve were taken for histopathology assessment.
The time latencies for thermal hyperalgesia, and force needed to induce pain of the different treatment groups are compared, using one way ANOVA (analysis of variance), followed by Duncan's post hoc test. A p<0.05 value was considered statistically significant and is indicated on the figure by an asterisk over the relevant treatment group.

EAE = conditions: 40 mg/kg p.o. daily for 21 days from disease induction, cited from earlier work
[6] = oral administration, on an average; cited from earlier work

CB1 receptor, sequence (P21554 whole entry): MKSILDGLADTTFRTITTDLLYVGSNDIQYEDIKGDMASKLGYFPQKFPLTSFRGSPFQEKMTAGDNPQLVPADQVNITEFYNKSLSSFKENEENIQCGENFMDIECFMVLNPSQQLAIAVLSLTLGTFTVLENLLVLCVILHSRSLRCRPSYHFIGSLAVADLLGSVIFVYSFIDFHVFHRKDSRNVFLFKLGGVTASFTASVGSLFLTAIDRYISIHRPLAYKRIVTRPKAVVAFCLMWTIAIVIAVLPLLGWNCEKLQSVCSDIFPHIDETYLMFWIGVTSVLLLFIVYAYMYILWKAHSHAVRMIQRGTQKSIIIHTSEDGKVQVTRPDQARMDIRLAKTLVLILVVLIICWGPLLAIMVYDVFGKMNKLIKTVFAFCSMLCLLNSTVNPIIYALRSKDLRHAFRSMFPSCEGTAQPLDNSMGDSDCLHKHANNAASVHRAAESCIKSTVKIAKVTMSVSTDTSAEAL
CB2 receptor, sequence (P34972 whole entry): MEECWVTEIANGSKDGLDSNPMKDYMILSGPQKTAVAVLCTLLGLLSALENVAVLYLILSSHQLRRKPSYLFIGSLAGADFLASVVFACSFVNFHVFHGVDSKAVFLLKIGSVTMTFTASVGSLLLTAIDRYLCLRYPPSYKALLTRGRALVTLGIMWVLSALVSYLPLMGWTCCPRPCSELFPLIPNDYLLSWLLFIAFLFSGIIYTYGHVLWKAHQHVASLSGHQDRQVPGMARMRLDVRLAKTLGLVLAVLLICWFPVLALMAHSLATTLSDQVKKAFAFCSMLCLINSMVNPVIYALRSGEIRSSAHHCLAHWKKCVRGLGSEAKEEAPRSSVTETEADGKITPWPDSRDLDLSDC

For `CCCCCCC(C)(C)c1cc(O)c([C@H]2CC(=O)C3CC2C3(C)C)c(OC(=O)CCC(=O)O)c1` (single isomer, unassigned; (-)) [Compound 18B, (−)-4-{4-[1,1-dimethylheptyl]-2-succinate-6-hydroxy-phenyl}-6,6-dimethyl-bicyclo[3.1.1]heptan-2-one], the IC50 (CB1 receptor) was 41 nM, the “inhibition of writhing responses as compared to vehicle treated group” value (visceral pain) was 95% and the “inhibition of pain response as compared to untreated animals” value (visceral pain; 10 mg/kg p.o. in phosphate buffer) was 88%. The “divergence of solubility from prediction” value ([1]; aqueous citrate buffer (pH 7.1) vs calculated) was under 4 fold, the solubility ([1]; aqueous citrate buffer, pH 7.1, aqueous buffer, thermodynamic from solid, aqueous citrate buffer (pH 7.1), read-out: actual solubility) was at most 95 µg/mL and the “inhibition of iNOS gene expression” value (iNOS [2]) was 55%. The IC50 (CB2 receptor) was 1.2 nM and the “time to hydrolysis in solution” value [3] was “less than 24 hours”.

With `CCCCCCC(C)(C)c1cc(O)c([C@H]2CC(=O)[C@H]3C[C@@H]2C3(C)C)c(O)c1` [Compound 18A, (−)-4-[4-(1,1-Dimethylheptyl)-2,6-dihydroxy-phenyl]-6,6-dimethyl-bicyclo[3.1.1]heptan-2-one] the IC50 (CB1 receptor) was 27.6 nM, the “inhibition of the number of writhing responses” value (visceral pain; 1 mg/kg i.v.) was 90% and the “effect of addition of CB1 antagonist on analgesic activity” value (visceral pain; 1 mg/kg i.v. + 1 mg/kg SR141716A) was “totally blocked”. The “effect of addition of CB2 antagonist on analgesic activity” value (visceral pain; 1 mg/kg i.v. + 1 mg/kg SR144528) was “did not affect”, the “inhibition of writhing responses as compared to vehicle treated group” value (visceral pain) was “total inhibition” and the “inhibition of writhing responses” value (visceral pain; 10 mg/kg p.o. in CREMOPHOR®:Ethanol) was 70%. For the same compound, the inhibition at 10 µM (RAW 264.7 macrophages) was 63%, the “iNOS protein band (western blot)” value (iNOS [4]) was “clear dose dependent disappearance of iNOS protein band” and the “effect of CB1 or CB2 antagonists on iNOS inhibiting activity” value (iNOS [2]; 5 μM of SR-141716 and SR-144528) was “reversed by co-administration of either CB1 or CB2 antagonists”. The “inhibition of iNOS gene expression” value (iNOS [2]) was 63%, the IC50 (CB2 receptor) was 1 nM and the “reduction in AUC of clinical score” value (MBP induced acute EAE) was 30-35%.

In the case of `NCC1(CC(=O)O)CCCCC1` [Gabapentin, reference compound], the “effect on pain threshold” value [5] is reported as “trend of increasing the pain threshold” and the “activity in visceral pain model” value (visceral pain; fumaric acid up to 5 mg/kg, Gabapentin up to 200 mg/kg, celecoxib up to 10 mg/kg) is reported as “inactive”.

For `CCCCCc1cc(O)c2c(c1)OC(C)(C)[C@@H]1CC=C(C)C[C@@H]21` [Δ^8-THC, reference compound], the “decrease of number of writhing responses as compared to the untreated group” value (visceral pain; 10 mg/kg p.o. in CREMOPHOR®:Ethanol, not statistically significant vs vehicle) is given as 47%, the “solubility in aqueous buffer” value ([1]; in words) is given as “not soluble in aqueous buffer” and the “decrease of mean disease severity” value (EAE) is given as 20%. The mean disease severity (EAE; vehicle 5.5±0.8) was 4.4±0.8.

For `CCCCCc1cc(O)c2c(c1)OC(C)(C)[C@@H]1CCC(C)=C[C@@H]21` [Δ^9-THC, Δ^9-tetrahydrocannabinol], the absolute bioavailability [6] is listed as 13%.
